Assay results taken from BindingDB's records for doi:10.7270/Q29G5K5D (Cc_Pmlsc, 2007).

Target: T1, Dual specificity protein phosphatase 1 (Homo sapiens, UniProt P28562)
T1 sequence (P28562 whole entry): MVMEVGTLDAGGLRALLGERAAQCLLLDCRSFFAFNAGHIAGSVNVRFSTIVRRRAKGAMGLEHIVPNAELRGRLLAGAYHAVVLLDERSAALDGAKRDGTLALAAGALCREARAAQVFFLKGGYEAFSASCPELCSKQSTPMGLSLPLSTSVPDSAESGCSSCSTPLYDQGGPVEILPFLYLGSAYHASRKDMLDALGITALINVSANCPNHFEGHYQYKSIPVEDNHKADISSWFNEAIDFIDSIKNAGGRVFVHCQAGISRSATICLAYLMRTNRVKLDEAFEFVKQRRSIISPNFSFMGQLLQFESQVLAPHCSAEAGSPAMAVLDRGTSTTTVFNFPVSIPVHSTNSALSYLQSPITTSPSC
Assay: MKP-1 phosphatase inhibitors, SAR follow-up, biochemical, in vitro (AID 579)
Settings: pH 7; 23 °C

Row | Structure (SMILES) | IC50 [µM]
1 | O=C(O)c1cc(-c2ccco2)nc2ccccc12 [2-(2-furanyl)-4-quinolinecarboxylic acid] | > 50
2 | Cn1c(=O)c(C(=O)COC(=O)c2cc(C(F)(F)F)nc3c(C(F)(F)F)cccc23)c(N)n(CC2CC2)c1=O [2,8-bis(trifluoromethyl)-4-quinolinecarboxylic acid [2-[6-amino-1-(cyclopropylmethyl)-3-methyl-2,4-dioxo-5-pyrimidinyl]-2-oxoethyl] ester] | > 50
3 | Cn1c(N)c(C(=O)COC(=O)c2cc(-c3ccco3)nc3ccccc23)c(=O)n(C)c1=O [2-(2-furanyl)-4-quinolinecarboxylic acid [2-(4-amino-1,3-dimethyl-2,6-dioxo-5-pyrimidinyl)-2-oxoethyl] ester] | 20.6
4 | CN(C)/C=N/c1cc(=O)n(C)c(=O)n1CC1CC1 [CC-PMLSC-DMA-P142] | > 50
5 | CN(C)C=Nc1cc(=O)[nH]c(=O)n1C [N,N-dimethyl-N'-(3-methyl-2,6-dioxo-4-pyrimidinyl)methanimidamide] | > 50
6 | Cn1c(=O)c(C(=O)CCl)c(N)n(CC2CC2)c1=O [6-amino-5-(2-chloro-1-oxoethyl)-1-(cyclopropylmethyl)-3-methylpyrimidine-2,4-dione] | > 50
7 | CN(C)/C=N/c1cc(=O)n(C)c(=O)n1Cc1ccccc1 [CC-PMLSC-DMA-P129] | > 50
8 | Cn1c(N)cc(=O)n(Cc2ccccc2)c1=O [6-amino-1-methyl-3-(phenylmethyl)pyrimidine-2,4-dione] | > 50
9 | NC(=O)NCc1ccccc1 [(phenylmethyl)urea] | > 50
10 | Cn1c(=O)c(C(=O)COC(=O)c2cc(-c3ccccc3)nc3ccccc23)c(N)n(Cc2ccccc2)c1=O [2-phenyl-4-quinolinecarboxylic acid [2-[4-amino-1-methyl-2,6-dioxo-3-(phenylmethyl)-5-pyrimidinyl]-2-oxoethyl] ester] | 50
11 | CN(C)C=Nc1cc(=O)[nH]c(=O)n1CC1CC1 [CC-PMLSC- DMA-P139] | > 50
12 | Cn1c(N)c(C(=O)CCl)c(=O)n(C)c1=O [6-amino-5-(2-chloro-1-oxoethyl)-1,3-dimethylpyrimidine-2,4-dione] | > 50
13 | O=C(O)c1cc(C(F)(F)F)nc2ccccc12 [2-(trifluoromethyl)-4-quinolinecarboxylic acid] | > 50
14 | N#CCC(=O)NC(=O)NCC1CC1 [2-cyano-N-(cyclopropylmethylcarbamoyl)acetamide] | > 50
15 | O=C(O)c1cc(C2CC2)nc2ccccc12 [2-cyclopropyl-4-quinolinecarboxylic acid] | > 50
16 | O=C(O)c1cc(C(F)(F)F)nc2c(C(F)(F)F)cccc12 [2,8-bis(trifluoromethyl)-4-quinolinecarboxylic acid] | > 50
17 | Cn1c(N)c(C(=O)COC(=O)c2cc(-c3ccccc3)nc3ccccc23)c(=O)n(Cc2ccccc2)c1=O [2-phenyl-4-quinolinecarboxylic acid [2-[6-amino-1-methyl-2,4-dioxo-3-(phenylmethyl)-5-pyrimidinyl]-2-oxoethyl] ester] | > 50
18 | Oc1cc(C(F)(F)F)nc2c(C(F)(F)F)cccc12 [2,8-bis(trifluoromethyl)-1H-quinolin-4-one] | > 50
19 | Cn1c(N)c(C(=O)COC(=O)c2ccnc3ccccc23)c(=O)n(C)c1=O [4-quinolinecarboxylic acid [2-(4-amino-1,3-dimethyl-2,6-dioxo-5-pyrimidinyl)-2-oxoethyl] ester] | > 50
20 | Cn1c(N)c(C(=O)COC(=O)c2cc(-c3ccco3)nc3ccccc23)c(=O)n(Cc2ccccc2)c1=O [2-(2-furanyl)-4-quinolinecarboxylic acid [2-[6-amino-1-methyl-2,4-dioxo-3-(phenylmethyl)-5-pyrimidinyl]-2-oxoethyl] ester] | 16.9
21 | FC(F)(F)c1cc(Br)c2cccc(C(F)(F)F)c2n1 [4-bromanyl-2,8-bis(trifluoromethyl)quinoline] | > 50
22 | Cn1c(=O)c(C(=O)COC(=O)c2cc(C(F)(F)F)nc3c(C(F)(F)F)cccc23)c(N)n(Cc2ccccc2)c1=O [2,8-bis(trifluoromethyl)-4-quinolinecarboxylic acid [2-[4-amino-1-methyl-2,6-dioxo-3-(phenylmethyl)-5-pyrimidinyl]-2-oxoethyl] ester] | > 50

Row | Structure (SMILES) | IC50 [µM]
23 | Cn1c(=O)cc(N)n(Cc2ccccc2)c1=O [6-amino-1-benzyl-3-methyl-pyrimidine-2,4-quinone] | > 50
24 | Cn1c(N)c(C(=O)COC(=O)c2cc(C3CC3)nc3ccccc23)c(=O)n(Cc2ccccc2)c1=O [2-cyclopropyl-4-quinolinecarboxylic acid [2-[6-amino-1-methyl-2,4-dioxo-3-(phenylmethyl)-5-pyrimidinyl]-2-oxoethyl] ester] | 28.9
25 | CC(C)Cn1c(N)c(C(=O)COC(=O)c2cc(-c3ccccc3)nc3ccccc23)c(=O)n(C)c1=O [2-phenyl-4-quinolinecarboxylic acid [2-[4-amino-1-methyl-3-(2-methylpropyl)-2,6-dioxo-5-pyrimidinyl]-2-oxoethyl] ester] | > 50
26 | CC(C)Cn1c(N)c(C(=O)COC(=O)c2cc(C(F)(F)F)nc3c(C(F)(F)F)cccc23)c(=O)n(C)c1=O [2,8-bis(trifluoromethyl)-4-quinolinecarboxylic acid [2-[4-amino-1-methyl-3-(2-methylpropyl)-2,6-dioxo-5-pyrimidinyl]-2-oxoethyl] ester] | > 50
27 | Cn1c(=O)c(C(=O)COC(=O)c2cc(C(F)(F)F)nc3ccccc23)c(N)n(Cc2ccccc2)c1=O [2-(trifluoromethyl)-4-quinolinecarboxylic acid [2-[4-amino-1-methyl-2,6-dioxo-3-(phenylmethyl)-5-pyrimidinyl]-2-oxoethyl] ester] | > 50
28 | CC(C)Cn1c(N)c(C(=O)COC(=O)c2cc(C(F)(F)F)nc3ccccc23)c(=O)n(C)c1=O [2-(trifluoromethyl)-4-quinolinecarboxylic acid [2-[4-amino-1-methyl-3-(2-methylpropyl)-2,6-dioxo-5-pyrimidinyl]-2-oxoethyl] ester] | > 50
29 | Cn1c(=O)c(C(=O)COC(=O)c2cc(-c3ccco3)nc3ccccc23)c(N)n(CC2CC2)c1=O [2-(2-furanyl)-4-quinolinecarboxylic acid [2-[6-amino-1-(cyclopropylmethyl)-3-methyl-2,4-dioxo-5-pyrimidinyl]-2-oxoethyl] ester] | 24.6
30 | Cn1c(N)c(C(=O)COC(=O)c2cc(C(F)(F)F)nc3ccccc23)c(=O)n(Cc2ccccc2)c1=O [2-(trifluoromethyl)-4-quinolinecarboxylic acid [2-[6-amino-1-methyl-2,4-dioxo-3-(phenylmethyl)-5-pyrimidinyl]-2-oxoethyl] ester] | > 50
31 | Cn1c(N)c(C(=O)COC(=O)c2cc(C(F)(F)F)nc3c(C(F)(F)F)cccc23)c(=O)n(Cc2ccccc2)c1=O [2,8-bis(trifluoromethyl)-4-quinolinecarboxylic acid [2-[6-amino-1-methyl-2,4-dioxo-3-(phenylmethyl)-5-pyrimidinyl]-2-oxoethyl] ester] | > 50
32 | CC(C)Cn1c(N)c(C(=O)COC(=O)c2cc(-c3ccco3)nc3ccccc23)c(=O)n(C)c1=O [2-(2-furanyl)-4-quinolinecarboxylic acid [2-[4-amino-1-methyl-3-(2-methylpropyl)-2,6-dioxo-5-pyrimidinyl]-2-oxoethyl] ester] | 50
33 | CC(C)Cn1c(N)c(C(=O)COC(=O)c2cc(C3CC3)nc3ccccc23)c(=O)n(C)c1=O [2-cyclopropyl-4-quinolinecarboxylic acid [2-[4-amino-1-methyl-3-(2-methylpropyl)-2,6-dioxo-5-pyrimidinyl]-2-oxoethyl] ester] | > 50
34 | CN(C)/C=N/c1cc(=O)n(Cc2ccccc2)c(=O)n1C [CC-PMLSC-DMA-P131] | > 50
35 | Nc1cc(=O)[nH]c(=O)n1CC1CC1 | > 50
36 | NC(=O)NCC1CC1 [1-(cyclopropylmethyl)urea] | > 50
37 | Cn1c(=O)c(C(=O)CCl)c(N)n(Cc2ccccc2)c1=O [6-amino-1-benzyl-5-(2-chloroacetyl)-3-methyl-pyrimidine-2,4-quinone] | > 50
38 | Nc1cc(=O)[nH]c(=O)n1Cc1ccccc1 [6-amino-1-benzylpyrimidine-2,4-dione] | > 50
39 | CN(C)C=Nc1cc(=O)[nH]c(=O)n1Cc1ccccc1 [N'-[2,6-dioxo-3-(phenylmethyl)-4-pyrimidinyl]-N,N-dimethylmethanimidamide] | > 50
40 | Cn1c(N)c(C(=O)COC(=O)c2cc(C(F)(F)F)nc3ccccc23)c(=O)n(C)c1=O [2-(trifluoromethyl)-4-quinolinecarboxylic acid [2-(4-amino-1,3-dimethyl-2,6-dioxo-5-pyrimidinyl)-2-oxoethyl] ester] | > 50
41 | Cn1c(=O)c(C(=O)COC(=O)c2cc(-c3ccco3)nc3ccccc23)c(N)n(Cc2ccccc2)c1=O [[2-(6-amino-1-benzyl-3-methyl-2,4-dioxopyrimidin-5-yl)-2-oxoethyl] 2-(furan-2-yl)quinoline-4-carboxylate] | 13.4
42 | Cn1c(N)c(C(=O)COC(=O)c2cc(C3CC3)nc3ccccc23)c(=O)n(C)c1=O [2-cyclopropyl-4-quinolinecarboxylic acid [2-(4-amino-1,3-dimethyl-2,6-dioxo-5-pyrimidinyl)-2-oxoethyl] ester] | > 50
43 | Cn1c(N)c(C(=O)CCl)c(=O)n(Cc2ccccc2)c1=O [6-amino-3-benzyl-5-(2-chloroacetyl)-1-methyl-pyrimidine-2,4-quinone] | > 50
44 | CC(C)Cn1c(N)c(C(=O)CCl)c(=O)n(C)c1=O [6-amino-5-(2-chloro-1-oxoethyl)-3-methyl-1-(2-methylpropyl)pyrimidine-2,4-dione] | > 50
